Where “and” joins values, the source holds several entries; their conditions need not be identical. Identical values can stand only once. Like-named read-outs stand apart in the source and are kept apart here.
Biological target: T1, Human K2P13.1 THIK-1 (WT) (Homo sapiens, UniProt Q9HB14)
T1 construct: expressed in transfected cells; host or cells: Xenopus oocytes (mRNA injection)
T1 sequence (Q9HB14 1-408): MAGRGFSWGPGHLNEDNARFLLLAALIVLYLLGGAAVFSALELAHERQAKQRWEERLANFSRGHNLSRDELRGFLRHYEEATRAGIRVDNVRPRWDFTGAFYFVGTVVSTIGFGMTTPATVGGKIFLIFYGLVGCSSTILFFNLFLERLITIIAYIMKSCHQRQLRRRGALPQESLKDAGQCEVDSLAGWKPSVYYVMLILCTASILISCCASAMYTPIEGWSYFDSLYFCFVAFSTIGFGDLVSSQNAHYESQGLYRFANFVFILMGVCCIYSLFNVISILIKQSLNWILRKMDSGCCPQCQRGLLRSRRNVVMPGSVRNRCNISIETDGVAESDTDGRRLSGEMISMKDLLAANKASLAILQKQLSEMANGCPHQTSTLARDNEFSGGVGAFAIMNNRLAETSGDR
Assay: Macroscopic inside-out excised patch recordings from Xenopus oocytes expressing WT THIK-1; compounds applied to the intracellular side
Format: cell-based
Conditions: for Fold activation: THIK-1 WT (unstimulated); for inhibition at 152 µM: halothane 0.152 mM; for inhibition at 304 µM: halothane 0.304 mM; for inhibition at 1520 µM: halothane 1.52 mM; for inhibition at 3040 µM: halothane 3.04 mM; for inhibition at 15200 µM: halothane 15.2 mM
Source text: Human K2P13.1 THIK-1 (GenBank accession number: NM_022054) and human K2P12.1 THIK-2 (NM_022055.1) were used in this study. For functional expression studies, the respective K^+ channel subtype coding sequences were subcloned into the oocyte expression vector pSGEM or the dual-purpose expression vector pFAW[41] and verified by sequencing. All mutant channels were obtained by site-directed mutagenesis and verified by sequencing. To increase surface expression and macroscopic currents, measurements of THIK-2 channels used a mutated ER retention motif, (R11A R12A R14A R15A R16A; THIK-2*)[20]. Vector DNA was linearized with NheI or MluI, and mRNA was synthesized in vitro using the SP6 or T7 AmpliCap Max High Yield Message Maker Kit (Cellscript, USA) or HiScribe T7 ARCA mRNA Kit (New England Biolabs).
Two-electrode voltage–clamp (TEVC) studies were performed in Xenopus oocytes. All animal use conformed to the Guide for the Care and Use of Laboratory Animals (NIH Publication 85–23), and all experiments using Xenopus toads were approved by the local ethics panels. Oocytes were stored at 17 °C in ND96 recording solution composed of (in mM): 96 NaCl, 2 KCl, 1.8 CaCl2, 1 MgCl2, 5 HEPES (pH 7.5 adjusted with NaOH and HCl), supplemented with Na-pyruvate (275 mg L^–1), theophylline (90 mg L^–1) and gentamicin (50 mg L^–1). Oocytes were injected with 1 ng mRNA for WT or mutant channels, and were incubated for 24–48 h at 17 °C. Two-electrode voltage clamp recordings were then performed as previously described[42],[43]. For macroscopic patch–clamp measurements, oocytes were obtained as described above incubated at 17 °C in a solution containing (mM): 54 NaCl, 30 KCl, 2.4 NaHCO3, 0.82 MgSO4 ×7 H2O, 0.41 CaCl2, 0.33 Ca(NO3)2 ×4 H2O and 7.5 TRIS (pH 7.4 adjusted with NaOH and HCl) for 1–4 days before use. Excised patch recordings in inside-out configuration conditions were performed at room temperature. Patch pipettes were made from thick-walled borosilicate glass GB 200TF-8P (Science Products), had resistances of 0.2–0.5 MΩ (tip diameter, 10–25 µm) and filled with a pipette solution (in mM): 120 KCl, 10 HEPES and 3.6 CaCl2 (pH 7.4 adjusted with KOH and HCl). Intracellular bath solutions and compounds were applied to the cytoplasmic side of excised patches for the various K^+ channels through a gravity flow multi-barrel pipette system. The intracellular solution had the following composition (in mM): 120 KCl, 10 HEPES, 2 EGTA and 1 pyrophosphate (pH adjusted with KOH and HCl). Currents were recorded with an EPC10 amplifier (HEKA Electronics) and sampled at 10 kHz or higher, with filtering set to 3 kHz (–3 dB) or higher, as appropriate for sampling rate. For measurements of GPCR activation, whole-cell currents were recorded for THIK-1 in transiently transfected HEK-293 cells. Cells were stimulated by a ramp protocol between −100 and +60 mV (holding potential, −80 mV). The pipette solution was composed of (in mM): 140 KCl, 2 MgCl2, 1 CaCl2, 2.5 EGTA and 10 HEPES (pH 7.3 adjusted with KOH and HCl). The extracellular bath solution had the following composition (in mM): 135 NaCl, 5 KCl, 2 MgCl2, 2 CaCl2, 10 glucose and 10 HEPES pH (pH 7.3 adjusted with NaOH and HCl). Oxotremorine M (Oxo-M) was added to extracellular bath solution to obtain the final concentration. Single-channel currents were recorded with an Axopatch 200B amplifier through a Digidata 1440A digitizer (Molecular Devices). Data were filtered at 2 kHz and recorded at a 200-kHz sampling rate with the program Clampex (Molecular Devices). Pipette solution and bath solution for cell-attached recordings contained (in mM): 140 KCl, 2 MgCl2, 1 CaCl2 and 10 HEPES (pH 7.4 adjusted with KOH and HCl). For inside-out recordings, the bath solution contained (in mM): 140 KCl, 2 MgCl2, 1 CaCl2 and 10 HEPES (pH 7.2 adjusted with KOH and HCl). All experiments were conducted at room temperature. […]

[1] = THIK-1 WT (TPenA), presence of 0.5 mM TPenA
[2] = THIK-1 WT (oleoyl-CoA), 5.0 µM oleoyl-CoA

Question: Which results are given for `FC(F)OC(Cl)C(F)(F)F` (centres unmarked) [Isoflurane, isoflurane]?
Answer: Inhibition (%) (4.9 mM Isoflurane, WT, individual recordings): 88.353% and 81.703% and 79.557% and 81.992% and 78.205% and 79.070% and 68.116% and 80.054% and 86.809% and 87.556%; inhibition at 242 µM (THIK-1 WT (oleoyl-CoA), 0.242 mM isoflurane): 10.6%; inhibition at 485 µM (THIK-1 WT (oleoyl-CoA), 0.485 mM isoflurane): 21%; inhibition at 2420 µM (THIK-1 WT (oleoyl-CoA), 2.42 mM isoflurane): 33.6%; inhibition at 4850 µM (THIK-1 WT (oleoyl-CoA), 4.85 mM isoflurane): 60.9%; inhibition at 24200 µM (THIK-1 WT (oleoyl-CoA), 24.2 mM isoflurane): 79.7%; Inhibition (THIK-1 WT (oleoyl-CoA), isoflurane concentration printed as "v" (mM)): 4.36%; inhibition at 48 µM (isoflurane 0.048 mM, THIK-1 WT): 20.4%; inhibition at 242 µM (isoflurane 0.242 mM, THIK-1 WT): 33.6%; inhibition at 485 µM (isoflurane 0.485 mM, THIK-1 WT): 50.2%; inhibition at 2420 µM (isoflurane 2.42 mM, THIK-1 WT): 65.3%; inhibition at 4850 µM (isoflurane 4.85 mM, THIK-1 WT): 81.1%; inhibition at 24200 µM (isoflurane 24.2 mM, THIK-1 WT): 89.5%

Question: Which results are given for `CCCCC/C=C\C/C=C\CCCCCCCC(=O)O` [linoleic acid]?
Answer: Fold activation (1 µM linoleic acid): 0.98; Fold activation (10 µM linoleic acid): 1.75; Fold activation (30 µM linoleic acid): 2.77; Fold activation (50 µM linoleic acid): 3.38; Fold activation (100 µM linoleic acid): 3.62; Fold activation (150 µM linoleic acid): 4.27; Fold activation (200 µM linoleic acid): 4.21; Fold activation with 30.0 µM linoleic acid (THIK-1 WT, individual recordings): 3.150 and 3.640 and 4.490 and 2.650 and 2.000 and 1.880 and 1.350 and 1.220 and 3.650 and 3.260 and 3.220; Fold activation with 30.0 µM linoleic acid (THIK-1 WT, mean): 2.77; EC50 (THIK-1 WT, mean, read-out: Linoleic acid EC50): 28.5 µM; EC50 (applied intracellularly to excised patches, WT, read-out: half-maximal effective concentration (activation)): 29 ± 5 µM

Question: Which inhibition at 152 µM (THIK-1 WT) does the source give for `FC(F)(F)C(Cl)Br` (centres unmarked) [halothane] here?
Answer: 11%

Question: And the inhibition at 152 µM [1]?
Answer: 6.45%

Question: And the inhibition at 304 µM (THIK-1 WT)?
Answer: 18.8%

Question: And the inhibition at 304 µM [1]?
Answer: 13%

Question: And the inhibition at 304 µM [2]?
Answer: 4.78%

Question: And the inhibition at 1520 µM (THIK-1 WT)?
Answer: 41.4%

Question: And the inhibition at 1520 µM [1]?
Answer: 23.2%

Question: And the inhibition at 1520 µM [2]?
Answer: 19.9%

Question: What about the inhibition at 3040 µM (THIK-1 WT) of the same compound?
Answer: 57.6%

Question: What about the inhibition at 3040 µM [1] of the same compound?
Answer: 30%

Question: What about the inhibition at 3040 µM [2] of the same compound?
Answer: 38.9%

Question: What about the inhibition at 15200 µM (THIK-1 WT) of the same compound?
Answer: 83.9%

Question: And the inhibition at 15200 µM [1]?
Answer: 57.9%

Question: And the inhibition at 15200 µM [2]?
Answer: 69.3%
